*1 amine or outer side, *2 acyl side, *3 side chain or, on linkers, in order; H or OH if unused. Where a SMILES comes first, the peptide text is derived from it. [ ]: non-standard residue; d: D form. The star is where a group is joined. d(γGlu) = O=C(O)[C@@H](CCC(=O)[*:2])N[*:1]; Ala(3-yl) = N[C@@H](C*)C(=O)O; dLac = C[C@@H](O)C(=O)O
Tests used:
Type in all cases: cell-based
murine NOD1 = target: T1, murine NOD1 (Mus musculus, UniProt Q8BHB0); assay: NOD1 functional agonist assay, 293mNOD1-SEAP reporter cells; details: 293mNOD1 cells, OD above 3*O.D of negative control
T1 construct: expressed in transfected cells; host or cells: HEK293
T1 sequence (Q8BHB0 1-953): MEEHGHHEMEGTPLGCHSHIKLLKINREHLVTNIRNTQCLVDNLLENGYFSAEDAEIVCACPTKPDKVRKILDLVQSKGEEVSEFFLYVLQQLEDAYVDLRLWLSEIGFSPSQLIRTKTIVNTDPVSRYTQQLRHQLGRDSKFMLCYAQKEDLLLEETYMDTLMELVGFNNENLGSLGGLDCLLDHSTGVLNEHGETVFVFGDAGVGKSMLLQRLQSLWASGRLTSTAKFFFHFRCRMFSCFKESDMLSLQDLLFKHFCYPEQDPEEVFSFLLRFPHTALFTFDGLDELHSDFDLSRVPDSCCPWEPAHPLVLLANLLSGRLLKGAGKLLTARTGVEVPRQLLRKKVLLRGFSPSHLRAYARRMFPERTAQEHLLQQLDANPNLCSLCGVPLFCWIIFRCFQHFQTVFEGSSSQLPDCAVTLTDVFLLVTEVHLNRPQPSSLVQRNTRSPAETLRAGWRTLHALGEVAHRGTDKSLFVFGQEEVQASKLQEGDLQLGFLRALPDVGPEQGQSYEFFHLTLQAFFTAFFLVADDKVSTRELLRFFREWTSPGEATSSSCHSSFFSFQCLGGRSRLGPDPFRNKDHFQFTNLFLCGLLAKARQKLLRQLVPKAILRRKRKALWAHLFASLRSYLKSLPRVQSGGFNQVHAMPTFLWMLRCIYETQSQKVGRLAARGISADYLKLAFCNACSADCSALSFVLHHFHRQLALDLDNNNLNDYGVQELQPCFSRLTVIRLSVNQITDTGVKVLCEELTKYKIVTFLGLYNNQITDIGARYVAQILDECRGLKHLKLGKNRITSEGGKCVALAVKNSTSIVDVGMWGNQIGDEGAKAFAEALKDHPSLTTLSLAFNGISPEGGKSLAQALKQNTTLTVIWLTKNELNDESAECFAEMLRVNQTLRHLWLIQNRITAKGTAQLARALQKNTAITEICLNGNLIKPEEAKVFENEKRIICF
Description: (§1) HEK293 cells were stably transfected with plasmid for the overexpression of the NOD1 genes and a reporter plasmid expressing a secreted embryonic alkaline phosphatase (SEAP) gene under the control of a promoter inducible by the transcription factors NF-κB and AP-1. These cells are referred herein as 293hNOD1-SEAP (for cells overexpressing the human NOD1 gene) and 293mNOD1-SEAP (for cells overexpressing the murine NOD1 gene). Upon NOD1 stimulation, these cells induce the activation of NF-κB and AP-1 and subsequently the secretion of SEAP. The reporter protein is easily detectable and measurable when using QUANTI-Blue™ (InvivoGen, San Diego, Calif.), a medium that turns purple/blue in the presence of SEAP.
(§2) The biological activity of the compounds of the invention tested using 293hNOD1 and 293mNOD1 cells. SEAP expression was measured using the commercially available SEAP detection kit (HEK-Blue™ Detection, InvivoGen). The SEAP activity in cells was quantified using the microplate reader (FLUOStar OPTIMA, BMG laboratories), the absorbance values were read using filter with excitation at 620 nm and emission at 655 nm. The results provided in Table 2 were expressed as the concentration were a significant mean optical density (OD) can be observed (above 3*O.D of negative control). As a positive control, the NOD1 pathway was stimulated with commercially available iE-DAP (InvivoGen) and C12-iE-DAP (an acylated derivative of DAP; InvivoGen). As a negative control endotoxin-free water was used. Additionally, 293 cells expressing the SEAP gene but not the NOD1 gene were used as a control.

human NOD1 = target: T2, human NOD1 (Homo sapiens, UniProt Q9Y239); assay: NOD1 functional agonist assay, 293hNOD1-SEAP reporter cells; details: 293hNOD1 cells, OD above 3*O.D of negative control
T2 construct: expressed in transfected cells; host or cells: HEK293
T2 sequence (Q9Y239 1-953): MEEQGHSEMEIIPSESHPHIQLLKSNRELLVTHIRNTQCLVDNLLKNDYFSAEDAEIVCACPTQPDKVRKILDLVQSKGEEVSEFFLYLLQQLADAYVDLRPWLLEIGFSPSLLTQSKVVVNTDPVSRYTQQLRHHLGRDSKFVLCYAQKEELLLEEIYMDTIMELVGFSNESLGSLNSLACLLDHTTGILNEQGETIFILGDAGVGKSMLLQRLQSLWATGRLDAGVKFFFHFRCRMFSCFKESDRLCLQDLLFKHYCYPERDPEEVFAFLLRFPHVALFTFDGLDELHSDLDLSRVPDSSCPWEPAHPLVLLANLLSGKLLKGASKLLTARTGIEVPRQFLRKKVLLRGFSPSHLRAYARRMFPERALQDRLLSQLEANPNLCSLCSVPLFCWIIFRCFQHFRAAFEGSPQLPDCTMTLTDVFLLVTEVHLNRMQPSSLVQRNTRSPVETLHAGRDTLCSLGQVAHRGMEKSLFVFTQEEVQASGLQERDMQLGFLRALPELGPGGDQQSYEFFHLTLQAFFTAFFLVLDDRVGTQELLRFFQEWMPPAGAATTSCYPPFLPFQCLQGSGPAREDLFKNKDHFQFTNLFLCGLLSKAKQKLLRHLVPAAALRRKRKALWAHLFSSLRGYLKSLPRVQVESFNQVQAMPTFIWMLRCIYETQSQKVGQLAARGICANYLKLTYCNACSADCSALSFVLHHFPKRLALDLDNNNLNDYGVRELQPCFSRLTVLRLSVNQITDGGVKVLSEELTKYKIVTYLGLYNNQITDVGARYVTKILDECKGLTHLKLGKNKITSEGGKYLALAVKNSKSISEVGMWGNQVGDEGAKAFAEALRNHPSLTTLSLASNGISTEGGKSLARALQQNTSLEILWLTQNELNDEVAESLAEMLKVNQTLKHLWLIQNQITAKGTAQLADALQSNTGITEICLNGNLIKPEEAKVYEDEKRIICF
Description: as §1, §2

hNOD2 = target: T3, hNOD2 (Homo sapiens, UniProt Q9HC29); assay: NOD2 functional agonist assay, 293hNOD2-SEAP reporter cells; details: 293hNOD2 cells, OD above 3*O.D of negative control
T3 construct: expressed in transfected cells; host or cells: HEK293
Description: HEK293 cells were stably transfected with plasmid for the overexpression of the NOD2 genes and a reporter plasmid expressing a secreted embryonic alkaline phosphatase (SEAP) gene under the control of a promoter inducible by the transcription factors NF-κB and AP-1. These cells are referred herein as 293hNOD2-SEAP. Upon NOD2 stimulation, these cells induce the activation of NF-κB and AP-1 and subsequently the secretion of SEAP. The reporter protein is easily detectable and measurable when using QUANTI-Blue™ (InvivoGen, San Diego, Calif.), a medium that turns purple/blue in the presence of SEAP.
The biological activity of the compounds using 293hNOD2 cells. SEAP expression was measured using the commercially available SEAP detection kit (HEK-Blue™ Detection, InvivoGen). The SEAP activity in cells was quantified using the microplate reader (FLUOStar OPTIMA, BMG laboratories), the absorbance values were read using filter with excitation at 620 nm and emission at 655 nm. The results provided in Table 3 were expressed as the concentration were a significant mean optical density (OD) can be observed (above 3*O.D of negative control) as the mean optical density. As a positive control, the NOD2 pathway was stimulated with commercially available MDP (InvivoGen) and M-triDAP (InvivoGen). As a negative control endotoxin-free water was used. Additionally, 293 cells expressing the SEAP gene but not the NOD2 gene were used as a control.

T3 sequence (Q9HC29 whole entry): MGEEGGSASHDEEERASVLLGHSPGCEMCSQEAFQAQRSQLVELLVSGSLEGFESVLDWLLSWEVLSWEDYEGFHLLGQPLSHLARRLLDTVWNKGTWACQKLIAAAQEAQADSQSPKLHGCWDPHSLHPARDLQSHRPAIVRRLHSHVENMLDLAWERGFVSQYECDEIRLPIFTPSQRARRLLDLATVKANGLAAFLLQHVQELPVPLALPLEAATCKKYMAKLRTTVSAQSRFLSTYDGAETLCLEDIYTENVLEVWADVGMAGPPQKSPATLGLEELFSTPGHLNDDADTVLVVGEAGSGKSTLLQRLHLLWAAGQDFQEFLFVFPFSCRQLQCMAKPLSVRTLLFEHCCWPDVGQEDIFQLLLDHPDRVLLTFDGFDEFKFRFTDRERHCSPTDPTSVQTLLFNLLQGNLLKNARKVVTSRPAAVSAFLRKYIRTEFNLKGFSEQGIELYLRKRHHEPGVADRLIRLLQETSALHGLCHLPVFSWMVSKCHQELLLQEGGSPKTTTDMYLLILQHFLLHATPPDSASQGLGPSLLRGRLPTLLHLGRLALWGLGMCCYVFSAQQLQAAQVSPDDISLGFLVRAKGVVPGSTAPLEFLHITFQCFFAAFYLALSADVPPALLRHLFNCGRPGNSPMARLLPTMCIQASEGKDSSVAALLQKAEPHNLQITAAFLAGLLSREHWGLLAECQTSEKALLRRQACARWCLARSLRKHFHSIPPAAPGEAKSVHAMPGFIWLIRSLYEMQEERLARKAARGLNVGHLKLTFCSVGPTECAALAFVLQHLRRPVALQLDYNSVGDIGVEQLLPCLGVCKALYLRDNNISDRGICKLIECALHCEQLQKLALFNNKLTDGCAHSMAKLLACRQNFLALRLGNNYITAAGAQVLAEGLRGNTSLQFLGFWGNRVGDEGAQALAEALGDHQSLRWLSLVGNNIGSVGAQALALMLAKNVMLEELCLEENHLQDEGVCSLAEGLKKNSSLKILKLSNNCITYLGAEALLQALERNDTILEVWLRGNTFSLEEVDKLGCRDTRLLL

| SMILES | mNod1: concentration where a significant mean optical density (OD) can be observed (murine NOD1) | hNod1: concentration where a significant mean optical density (OD) can be observed (human NOD1) | hNod2: concentration where a significant mean optical density (OD) can be observed (hNOD2) |
| --- | --- | --- | --- |
| CC(=O)N[C@H]1[C@@H](OCc2ccccc2)O[C@H](CO)[C@@H](O)[C@@H]1O[C@H](C)C(=O)N[C@@H](C)C(=O)N[C@H](CCC(=O)N[C@H](CSC[C@H](N)C(=O)O)C(=O)NCC(=O)O)C(=O)O [Example 32, N^2-(((R)-2-(((2S,3R,4R,5S,6R)-3-acetamido-2-(benzyloxy)-5-hydroxy-6-(hydroxymethyl)tetrahydro-2H-pyran-4-yl)oxy)propanoyl)-L-alanyl)-N^5-((S)-3-(((R)-2-amino-2-carboxyethyl)thio)-1-((carboxymethyl)amino)-1-oxopropan-2-yl)-D-glutamine] | 0.1 µg/mL | 0.1 µg/mL | 0.1 µg/mL |
| CC(=O)N[C@H]1[C@@H](OCc2ccccc2)O[C@H](CO)[C@@H](O)[C@@H]1O[C@H](C)C(=O)N[C@@H](C)C(=O)N[C@H](CCC(=O)N[C@H](CSC[C@H](N)C(=O)O)C(=O)N[C@H](C)C(=O)O)C(=O)O [Example 33, N2-(((R)-2-(((2S,3R,4R,5S,6R)-3-acetamido-2-(benzyloxy)-5-hydroxy-6-(hydroxymethyl)tetrahydro-2H-pyran-4-yl)oxy)propanoyl)-L-alanyl)-N^5-((S)-3-(((R)-2-amino-2-carboxyethyl)thio)-1-(((R)-1-carboxyethyl)amino)-1-oxopropan-2-yl)-D-glutamine] | 1 µg/mL | 1 µg/mL | 1 µg/mL |
| C[C@H](N)C(=O)N[C@H](CCC(=O)N[C@H](CSC[C@H](N)C(=O)O)C(=O)NCC(=O)O)C(=O)O [Example 26, N^2-(L-alanyl)-N^5-((S)-3-(((R)-2-amino-2-carboxyethyl)thio)-1-((carboxymethyl)amino)-1-oxopropan-2-yl)-D-glutamine] | 0.1 µg/mL | 10 µg/mL | – |
| CCCCCCCCCCCC(=O)N[C@H](CCC(=O)N[C@H](CSC[C@H](N)C(=O)O)C(=O)O)C(=O)O [Example 3, N^5-((S)-2-(((R)-2-amino-2-carboxyethyl)thio)-1-carboxyethyl)-N^2-dodecanoyl-D-glutamine] | 0.1 µg/mL | 0.01 µg/mL | – |
| CCCCCCCCCCCCCC(=O)N[C@@H](CC(C)C)C(=O)N[C@H](CCC(=O)N[C@H](CSC[C@H](N)C(=O)O)C(=O)O)C(=O)O [Example 10, N^5-((S)-2-(((R)-2-amino-2-carboxyethyl)thio)-1-carboxyethyl)-N^2-(tetradecanoyl-L-leucyl)-D-glutamine] | 0.1 µg/mL | 0.001 µg/mL | – |
| C[C@H](NC(=O)[C@@H](C)O)C(=O)N[C@H](CCC(=O)N[C@H](CSC[C@H](N)C(=O)O)C(=O)NCC(=O)O)C(=O)O [Example 30, N^5-((S)-3-(((R)-2-amino-2-carboxyethyl)thio)-1-((carboxymethyl)amino)-1-oxopropan-2-yl)-N^2-(((R)-2-hydroxypropanoyl)-L-alanyl)-D-glutamine] (H-[dLac]A[d(γGlu)][dC](Ala(3-yl))G-OH) | 10 µg/mL | 10 µg/mL | – |
| CC(=O)N[C@H]1[C@@H](OCc2ccccc2)O[C@H](CO)[C@@H](O)[C@@H]1O[C@H](C)C(=O)N[C@@H](C)C(=O)N[C@H](CCC(=O)N[C@H](CSC[C@H](N)C(=O)O)C(=O)O)C(=O)O [Example 31, N^2-(((R)-2-(((2S,3R,4R,5S,6R)-3-acetamido-2-(benzyloxy)-5-hydroxy-6-(hydroxymethyl)tetrahydro-2H-pyran-4-yl)oxy)propanoyl)-L-alanyl)-N^5-((S)-2-(((R)-2-amino-2-carboxyethyl)thio)-1-carboxyethyl)-D-glutamine] | 1 µg/mL | 1 µg/mL | 0.1 µg/mL |

Reference: patent US20170210778A1, “NOVEL COMPOUNDS” (The Provost, Fellows, Foundation Scholars, and the other …, priority 2014, published 2017)
